What was measured:
Experiment in all cases: relative viability (nuclei count vs DMSO), 5 days (fraction); higher = more cells survive
[1] = compound: CC1=CC(=CC=C1)NC2=NC(=CS2)C3=CC=NC=C3 + C[C@]1(O)C[C@@H](c2nc(-c3ccc4ccc(-c5ccccc5)nc4c3)c3c(N)nccn32)C1 [Linsitinib] (partner 1 µM)
In short: (§1)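 Lung cancer cell lines in 1536-well plates got either a single drug or a fixed anchor-drug dose together with five library-drug doses (not always all listed) in √10 steps, by pin tool, on the day after seeding. Nuclei were counted after 5 days, and relative viability is the treated-to-vehicle ratio of nuclei counts. Values are medians of duplicate plates.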

Masitinib + Alpelisib = compound: Cc1ccc(NC(=O)c2ccc(CN3CCN(C)CC3)cc2)cc1Nc1nc(-c2cccnc2)cs1 [Masitinib] + Cc1nc(NC(=O)N2CCC[C@H]2C(N)=O)sc1-c1ccnc(C(C)(C)C(F)(F)F)c1 [Alpelisib] (partner 2 µM)
In short: as §1

[2] = compound: CC1=CC(=CC=C1)NC2=NC(=CS2)C3=CC=NC=C3 + Cc1cc(Nc2cc(N3CCN(C)CC3)nc(Sc3ccc(NC(=O)C4CC4)cc3)n2)n[nH]1 [Tozasertib] (partner 0.1 µM)
In short: as §1

Masitinib + Foretinib = compound: Cc1ccc(NC(=O)c2ccc(CN3CCN(C)CC3)cc2)cc1Nc1nc(-c2cccnc2)cs1 [Masitinib] + COc1cc2c(Oc3ccc(NC(=O)C4(C(=O)Nc5ccc(F)cc5)CC4)cc3F)ccnc2cc1OCCCN1CCOCC1 [Foretinib] (partner 0.25 µM)
In short: as §1

UMC-11
relative viability ([1]; first compound 0.08 µM): 0.983
relative viability ([1]; first compound 0.253 µM): 1
relative viability ([1]; first compound 0.8 µM): 1.01
relative viability ([1]; first compound 2.53 µM): 0.977
relative viability ([1]; first compound 8 µM): 1.05
relative viability (Masitinib + Alpelisib; first compound 0.01 µM): 0.899
relative viability (Masitinib + Alpelisib; first compound 0.03162 µM): 0.713
relative viability (Masitinib + Alpelisib; first compound 0.1 µM): 1.12
relative viability (Masitinib + Alpelisib; first compound 0.3162 µM): 1.17
relative viability (Masitinib + Alpelisib; first compound 1 µM): 1.2
relative viability ([2]; first compound 0.08 µM): 0.219
relative viability ([2]; first compound 0.253 µM): 0.206
relative viability ([2]; first compound 0.8 µM): 0.193
relative viability ([2]; first compound 2.53 µM): 0.185
relative viability ([2]; first compound 8 µM): 0.224
relative viability (Masitinib + Foretinib; first compound 0.03162 µM): 0.951
relative viability (Masitinib + Foretinib; first compound 0.1 µM): 1.12
relative viability (Masitinib + Foretinib; first compound 0.3162 µM): 1.17
relative viability (Masitinib + Foretinib; first compound 1 µM): 1.15
